The values below come from ChEMBL document CHEMBL1125524, “Adenosine A1 antagonists. 2. Structure-activity relationships on diuretic activities and protective effects against acute renal failure” (J Med Chem, 1992).

Each structure is given as a SMILES string.

Test [1] deals with Rattus norvegicus. Briefly: Ratio of sodium ion/potassium ion concentration in treated rats to that in control rats, at a peroral dose of 25 mg/Kg. In kind it is functional.
The subject of test [2] is Rattus norvegicus. Briefly: Percent inhibition of serum creatinine by the compound given as ratio of UN value in treated to vehicle treated ones after intraperitoneal administration of 10 mg/kg of compound to rats(vehicle 146.7+/-10.1). Conditions: ip. In kind it is functional.
Test [3] has as its system Rattus norvegicus. Briefly: Ratio of urinary excretion value (Na+ concentration) in treated rats to that in control rats, at a peroral dose of 1.6 mg/Kg. In kind it is functional, Urine.
Test [4] deals with Rattus norvegicus. Put plainly: Ratio of urinary excretion value (urinary volume) in treated rats to that in control rats, at a peroral dose of 25 mg/Kg. In kind it is functional, Urine.
Test [5] concerns Rattus norvegicus. Put plainly: Urea nitrogen concentration measured after intraperitoneal administration of 10 mg/kg of compound to rats(vehicle 146.7+/-10.1). In kind it is functional.
Test [6] has as its system Rattus norvegicus. Put plainly: Ratio of urinary excretion value (urinary volume) in treated rats to that in control rats, at a peroral dose of 1.6 mg/Kg. In kind it is functional, Urine.
The test system of test [7] is Rattus norvegicus. Put plainly: Oral diuretic activity was measured after oral administration of 25 mg/kg to rats(control volume is 0.69+/-0.03). In kind it is functional, Urine.
Test [8] deals with Rattus norvegicus. Briefly: Effect on urinary excretion potassium and sodium after oral administration of 25 mg/kg to rats(potassium and sodium excretion in control rat is 0.079+/-0.007). In kind it is functional, Urine.
In test [9] the test system is Rattus norvegicus. Put plainly: Oral diuretic activity was measured after oral administration of 1.6 mg/kg to rats(control volume is 1.12+/-0.33). In kind it is functional, Urine.
Test [10] deals with Rattus norvegicus. Put plainly: Serum creatinine concentration measured after intraperitoneal administration of 1 mg/kg of compound to rats(vehicle 3.06+/-0.68). In kind it is functional.
For a further test, the target named is Adenosine A2 receptor (Rattus norvegicus, UniProt P29276+P30543).
Test [11] relates to Rattus norvegicus. Briefly: Percent inhibition of serum creatinine by the compound given as ratio of Cr value in treated to vehicle treated ones after intraperitoneal administration of 1 mg/kg of compound to rats(vehicle 3.06+/-0.68). Conditions: ip. In kind it is functional.
In test [12] the test system is Rattus norvegicus. Put plainly: Ratio of sodium ion/potassium ion concentration in treated rats to that in control rats, at a peroral dose of 1.6 mg/Kg. In kind it is functional.
The subject of test [13] is Rattus norvegicus. Put plainly: Ratio of urinary excretion value (Na+ concentration) in treated rats to that in control rats, at a peroral dose of 25 mg/Kg. In kind it is functional, Urine.
For test [14], the system named is Rattus norvegicus. Put plainly: Percent inhibition of serum creatinine by the compound given as ratio of UN value in treated to vehicle treated ones after intraperitoneal administration of 1 mg/kg of compound to rats(vehicle 120.9+/-23.3). In kind it is functional. Conditions: ip.
The subject of test [15] is Rattus norvegicus. Briefly: Percent inhibition of serum creatinine by the compound given as ratio of Cr value in treated to vehicle treated ones after intraperitoneal administration of 10 mg/kg of compound to rats(vehicle 4.26+/-0.39). In kind it is functional. Conditions: ip.
Test [16] has as its system Rattus norvegicus. Put plainly: Serum creatinine concentration measured after intraperitoneal administration of 10 mg/kg of compound to rats(vehicle 4.26+/-0.39). In kind it is functional.
Test [17] concerns Rattus norvegicus. Put plainly: Effect on urinary excretion potassium and sodium after oral administration of 1.6 mg/kg to rats(potassium and sodium excretion in control rat is 0.158+/-0.034). In kind it is functional, Urine.
Test [18] has as its system Rattus norvegicus. Put plainly: Urea nitrogen concentration measured after intraperitoneal administration of 1 mg/kg of compound to rats(vehicle 120.9+/-23.3). In kind it is functional.
The test system of test [19] is Rattus norvegicus. Put plainly: Effect on urinary excretion potassium and sodium after oral administration of 0.01 mg/kg to rats(potassium and sodium excretion in control rat is 0.191+/-0.020). In kind it is functional, Urine.
Test [20] has as its system Rattus norvegicus. Briefly: Urea nitrogen concentration measured after intraperitoneal administration of 1 mg/kg of compound to rats(vehicle 171.3+/-6.4). In kind it is functional.
Test [21] relates to Rattus norvegicus. Briefly: Urea nitrogen concentration measured after intraperitoneal administration of 1 mg/kg of compound to rats(vehicle 143.9+/-12.2). In kind it is functional.
For test [22], the system named is Rattus norvegicus. Briefly: Effect on urinary excretion potassium and sodium after oral administration of 1.6 mg/kg to rats(potassium and sodium excretion in control rat is 0.173+/-0.015). In kind it is functional, Urine.
Test [23] relates to Rattus norvegicus. Briefly: Oral diuretic activity was measured after oral administration of 0.1 mg/kg to rats(control volume is 0.75+/-0.12). In kind it is functional, Urine.
The subject of test [24] is Rattus norvegicus. Briefly: Urea nitrogen concentration measured after intraperitoneal administration of 1 mg/kg of compound to rats(vehicle 165.3+/-4). In kind it is functional.
Test [25] concerns Rattus norvegicus. Briefly: Ratio of urinary excretion value (urinary volume) in treated rats to that in control rats, at a peroral dose of 0.01 mg/Kg. In kind it is functional, Urine.
Test [26] deals with Rattus norvegicus. Put plainly: Serum creatinine concentration measured after intraperitoneal administration of 1 mg/kg of compound to rats(vehicle 4.09+/-0.39). In kind it is functional.
For test [27], the system named is Rattus norvegicus. Put plainly: Ratio of urinary excretion value (urinary volume) in treated rats to that in control rats, at a peroral dose of 0.1 mg/Kg. In kind it is functional, Urine.
Test [28] relates to Rattus norvegicus. Briefly: Ratio of urinary excretion value (Na+ concentration) in treated rats to that in control rats, at a peroral dose of 0.1 mg/Kg. In kind it is functional, Urine.
Test [29] concerns Rattus norvegicus. Put plainly: Ratio of sodium ion/potassium ion concentration in treated rats to that in control rats, at a peroral dose of 0.1 mg/Kg. In kind it is functional.
Test [30] concerns Rattus norvegicus. Put plainly: Ratio of sodium ion/potassium ion concentration in treated rats to that in control rats, at a peroral dose of 0.01 mg/Kg. In kind it is functional.
Test [31] relates to Rattus norvegicus. Put plainly: Serum creatinine concentration measured after intraperitoneal administration of 1 mg/kg of compound to rats(vehicle 6.90+/-0.2). In kind it is functional.
The test system of test [32] is Rattus norvegicus. Put plainly: Oral diuretic activity was measured after oral administration of 1.6 mg/kg to rats(control volume is 0.93+/-0.03). In kind it is functional, Urine.
The subject of test [33] is Rattus norvegicus. Put plainly: Effect on urinary excretion potassium and sodium after oral administration of 0.1 mg/kg to rats(potassium and sodium excretion in control rat is 0.179+/-0.038). In kind it is functional, Urine.
Test [34] concerns Rattus norvegicus. Put plainly: Serum creatinine concentration measured after intraperitoneal administration of 1 mg/kg of compound to rats(vehicle 5.08+/-0.14). In kind it is functional.
In test [35] the test system is Rattus norvegicus. Briefly: Ratio of urinary excretion value (Na+ concentration) in treated rats to that in control rats, at a peroral dose of 0.01 mg/Kg. In kind it is functional, Urine.
Test [36] deals with Rattus norvegicus. Put plainly: Oral diuretic activity was measured after oral administration of 0.01 mg/kg to rats(control volume is 1.15+/-0.17). In kind it is functional, Urine.

For `CCCn1c(=O)c2nc(C[C@H]3CC4CCC3C4)[nH]c2n(CCC)c1=O` (stereo partly specified), the figures for the “Na+/K+” value with Rattus norvegicus [1] and with Rattus norvegicus [12] were 2.12 and 0.85, respectively. Further, the inhibition in vivo at 10 mg/kg with Rattus norvegicus [2] was determined as 38%; in the test with Rattus norvegicus [15], 41%. The T/C in the test on Rattus norvegicus [3] was 0.83; in the test on Rattus norvegicus [4], 2.41; with Rattus norvegicus [6] it was 0.77; with Rattus norvegicus [13], 2.91. Also, the UN in the test on Rattus norvegicus [5] amounted to 90.9 mg/dL; with Rattus norvegicus [18] it was 104.7 mg/dL. Moreover, the figures for the Urine volume in the test on Rattus norvegicus [7] and in the test on Rattus norvegicus [9] were 1.66 ml 6hr-1 100g-1 and 0.86 ml 6hr-1 100g-1, respectively. For the same compound, the Na in the test on Rattus norvegicus [8] is reported as 0.23 m equiv 6hr-1 100g-1; in the test on Rattus norvegicus [17] it was 0.131 m equiv 6hr-1 100g-1. Besides, the Cr was 2.75 mg/dL with Rattus norvegicus [10] and 2.53 mg/dL in the test with Rattus norvegicus [16]. For the same compound, the affinity at Adenosine A2 receptor corresponds to a Ki of 1000 nM. Further, the figures for the inhibition in vivo at 1 mg/kg in the test on Rattus norvegicus [11] and in the test with Rattus norvegicus [14] were 10% and 13%, respectively.
For the compound `CC(C)Cn1c(=O)n(C)c(=O)c2[nH]c(C(C3CC3)C3CC3)nc21`, the Na in the test on Rattus norvegicus [19] was 0.212 m equiv 6hr-1 100g-1; in the test on Rattus norvegicus [22] it was 0.345 m equiv 6hr-1 100g-1; in the test on Rattus norvegicus [33], 0.25 m equiv 6hr-1 100g-1. Further, the UN in the test with Rattus norvegicus [20] turned out to be 110.7 mg/dL; in the test on Rattus norvegicus [21], 150.7 mg/dL; in the test on Rattus norvegicus [24], 122 mg/dL. The values for the Urine volume in the test with Rattus norvegicus [23], in the test on Rattus norvegicus [32] and with Rattus norvegicus [36] were 1.26 ml 6hr-1 100g-1, 1.93 ml 6hr-1 100g-1 and 1.15 ml 6hr-1 100g-1, respectively. Moreover, the T/C in the test on Rattus norvegicus [25] is reported as 1; with Rattus norvegicus [3] it was 1.99; in the test with Rattus norvegicus [6] it was 2.08; with Rattus norvegicus [27], 1.68; in the test on Rattus norvegicus [28], 1.4; with Rattus norvegicus [35], 1.11. For the same compound, the Cr in the test with Rattus norvegicus [26] worked out at 4.28 mg/dL; with Rattus norvegicus [31], 3.97 mg/dL; with Rattus norvegicus [34], 3.29 mg/dL. The affinity at Adenosine A2 receptor, expressed as Ki, was 410 nM. The “Na+/K+” value was 2.13 in the test on Rattus norvegicus [29], 1.09 with Rattus norvegicus [30] and 1.37 in the test with Rattus norvegicus [12].

The term inhibition in vivo denotes how much of the control response was suppressed. In general, Ki refers to a measure of affinity in units of concentration, obtained from inhibition or displacement. Lower therefore signals a stronger hold on the target.
